# Assay results reported in ChEMBL document CHEMBL1201862, “PubChem BioAssay data set” (2004).
#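 Briefly, cells in 96-well plates were exposed to five compound concentrations for 48 h, and endpoints were estimated by linear interpolation. GI50 marks 50% less growth.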 The source made the active and inactive calls. Rule as the data show it: active = GI50 up to about 1.1 µM and inactive = higher.
# What was measured:
# Assay in all cases: NCI anticancer screen, dose series, 48 h
# HOP-62 = tested on: HOP-62
# RPMI-8226 = tested on: RPMI-8226
# PC-3 = tested on: PC-3
# K562 = tested on: K562
# CAKI-1 = tested on: CAKI-1
# EKVX = tested on: EKVX
# 786-0 = tested on: 786-0
# MOLT-4 = tested on: MOLT-4
# T47D = tested on: T47D
# TK-10 = tested on: TK-10
# MDA-MB-231 = tested on: MDA-MB-231
# OVCAR-8 = tested on: OVCAR-8
# OVCAR-5 = tested on: OVCAR-5
# A498 = tested on: A498
# SK-MEL-5 = tested on: SK-MEL-5
# BT-549 = tested on: BT-549
# OVCAR-4 = tested on: OVCAR-4
# U-251 = tested on: U-251
# NCI-H522 = tested on: NCI-H522
Compound,GI50 (HOP-62),GI50 (RPMI-8226),GI50 (PC-3),GI50 (K562),GI50 (CAKI-1),GI50 (EKVX),GI50 (786-0),GI50 (MOLT-4),GI50 (T47D),GI50 (TK-10),GI50 (MDA-MB-231),GI50 (OVCAR-8),GI50 (OVCAR-5),GI50 (A498),GI50 (SK-MEL-5),GI50 (BT-549),GI50 (OVCAR-4),GI50 (U-251),GI50 (NCI-H522)
CCOC(=O)c1c(N=C(S)Nc2ccc(Cl)cc2)sc2c1CCN(C)C2,> 100 µM (inactive),33.9 µM (inactive),> 100 µM (inactive),61 µM (inactive),> 100 µM (inactive),> 100 µM (inactive),> 100 µM (inactive),41.8 µM (inactive),> 100 µM (inactive),> 100 µM (inactive),> 100 µM (inactive),> 100 µM (inactive),> 100 µM (inactive),> 100 µM (inactive),> 100 µM (inactive),78.9 µM (inactive),,,
CC[n+]1[b-](C(C)(C)C)n(/N=C(\C)C(C)(C)C)[b-](C(C)(C)C)[n+]1CC,> 100 µM (inactive),,> 100 µM (inactive),71.8 µM (inactive),> 100 µM (inactive),> 100 µM (inactive),> 100 µM (inactive),> 100 µM (inactive),> 100 µM (inactive),> 100 µM (inactive),> 100 µM (inactive),> 100 µM (inactive),> 100 µM (inactive),,> 100 µM (inactive),> 100 µM (inactive),> 100 µM (inactive),> 100 µM (inactive),> 100 µM (inactive)
O=C(CN1CCCCC1)CC(O)(C(F)(F)F)C(F)(F)F,,> 100 µM (inactive),> 100 µM (inactive),> 100 µM (inactive),> 100 µM (inactive),> 100 µM (inactive),> 100 µM (inactive),,> 100 µM (inactive),> 100 µM (inactive),> 100 µM (inactive),> 100 µM (inactive),> 100 µM (inactive),> 100 µM (inactive),> 100 µM (inactive),> 100 µM (inactive),> 100 µM (inactive),> 100 µM (inactive),> 100 µM (inactive)
C=C(C(=O)OC)[C@H]1CC/C(C)=C/CC[C@@](C)(O)C=CC[C@@]2(C)O[C@@H]2C1,44.3 µM (inactive),16.1 µM (inactive),44.4 µM (inactive),> 10 µM (inactive),24.1 µM (inactive),20.8 µM (inactive),17.6 µM (inactive),12.7 µM (inactive),37.3 µM (inactive),40.6 µM (inactive),56.9 µM (inactive),13.9 µM (inactive),> 100 µM (inactive),20.7 µM (inactive),1.04 µM (active),76.2 µM (inactive),64.6 µM (inactive),40.4 µM (inactive),
O=C1CCCc2ccc3c(c21)CC1(Cc2cc4c(cc2C1)CCCC4)C3,24.7 µM (inactive),10.2 µM (inactive),,6.49 µM (inactive),,21.1 µM (inactive),18.1 µM (inactive),14.8 µM (inactive),5.38 µM (inactive),23.1 µM (inactive),15.5 µM (inactive),19.7 µM (inactive),27.4 µM (inactive),37.6 µM (inactive),12.6 µM (inactive),25.1 µM (inactive),22.1 µM (inactive),20.4 µM (inactive),17.3 µM (inactive)
COC(=O)NC1(NC(=O)OC)NC(=O)c2cc(OC)c(OC)c(OC)c2N1,21.1 µM (inactive),,12.4 µM (inactive),12.3 µM (inactive),63.8 µM (inactive),> 100 µM (inactive),39 µM (inactive),63.2 µM (inactive),43.5 µM (inactive),38 µM (inactive),36.2 µM (inactive),64.4 µM (inactive),> 100 µM (inactive),32.2 µM (inactive),11 µM (inactive),22.4 µM (inactive),> 100 µM (inactive),< 0.01 µM (active),6.98 µM (inactive)
C/C=C/[C@@H]1[C@H]2C(=O)[C@]3(Cl)[C@@H](/C=C/C)[C@@H]3C(=O)[C@@]12Cl,33.7 µM (inactive),,> 100 µM (inactive),> 100 µM (inactive),> 100 µM (inactive),> 100 µM (inactive),46.8 µM (inactive),7.16 µM (inactive),> 100 µM (inactive),> 100 µM (inactive),94.2 µM (inactive),> 100 µM (inactive),> 100 µM (inactive),> 100 µM (inactive),> 100 µM (inactive),> 100 µM (inactive),> 100 µM (inactive),85.3 µM (inactive),> 100 µM (inactive)
CN(C)c1ccc(/C=N\NC(=O)Nc2cccc3ccccc23)cc1,8.67 µM (inactive),4.28 µM (inactive),6.62 µM (inactive),,3.25 µM (inactive),0.215 µM (active),5.74 µM (inactive),4.56 µM (inactive),2.73 µM (inactive),12.2 µM (inactive),12.3 µM (inactive),14.9 µM (inactive),19.4 µM (inactive),8.99 µM (inactive),3.97 µM (inactive),11.7 µM (inactive),15.5 µM (inactive),5.82 µM (inactive),2.08 µM (inactive)
CC1=NC(=Cc2ccc([N+](=O)[O-])cc2)C(=O)N1n1c(-c2ccccc2)nc2ccccc2c1=O,60.1 µM (inactive),22.3 µM (inactive),39.7 µM (inactive),40.6 µM (inactive),35.2 µM (inactive),45.5 µM (inactive),83 µM (inactive),28.8 µM (inactive),39.8 µM (inactive),80.7 µM (inactive),63.7 µM (inactive),36.6 µM (inactive),,,31.9 µM (inactive),85.3 µM (inactive),,,32.1 µM (inactive)
CCC1=C(C)C(=O)N/C1=C\c1[nH]c(C)c([C@H](C)CCN)c1C,16.6 µM (inactive),25.6 µM (inactive),,46.6 µM (inactive),17.1 µM (inactive),14.4 µM (inactive),14.7 µM (inactive),34 µM (inactive),9.98 µM (inactive),,17.4 µM (inactive),15.3 µM (inactive),17.5 µM (inactive),18.6 µM (inactive),17.2 µM (inactive),16.3 µM (inactive),12.8 µM (inactive),15.1 µM (inactive),11.6 µM (inactive)
CCOC(=O)O/N=C1/C(=C2/C(=O)Nc3ccccc32)Nc2ccccc21,6.81 µM (inactive),10.8 µM (inactive),,12.2 µM (inactive),1.86 µM (inactive),2.54 µM (inactive),5.92 µM (inactive),3.74 µM (inactive),3.93 µM (inactive),5.35 µM (inactive),11.6 µM (inactive),5.83 µM (inactive),16.5 µM (inactive),1.47 µM (inactive),2.37 µM (inactive),7.31 µM (inactive),6.4 µM (inactive),9.14 µM (inactive),8.53 µM (inactive)
Cc1cc(-c2ccc(C(=O)C(c3ccccc3)(c3ccccc3)c3ccccc3)[nH]2)on1,17.1 µM (inactive),14.4 µM (inactive),15.2 µM (inactive),32 µM (inactive),33.1 µM (inactive),13.2 µM (inactive),18.4 µM (inactive),21.8 µM (inactive),37.8 µM (inactive),,19.7 µM (inactive),17.5 µM (inactive),23.8 µM (inactive),37.1 µM (inactive),12.7 µM (inactive),18.7 µM (inactive),32.3 µM (inactive),12.9 µM (inactive),
C=CCCON(C(=O)OC(C)(C)C)C(C)(C)C,> 100 µM (inactive),> 100 µM (inactive),> 100 µM (inactive),> 100 µM (inactive),> 100 µM (inactive),> 100 µM (inactive),> 100 µM (inactive),> 100 µM (inactive),> 100 µM (inactive),> 100 µM (inactive),> 100 µM (inactive),> 100 µM (inactive),> 100 µM (inactive),> 100 µM (inactive),> 100 µM (inactive),> 100 µM (inactive),,> 100 µM (inactive),> 100 µM (inactive)
c1ccc2c(c1)[nH]c1nc3cc(-c4ccc5nc6c(nc5c4)[nH]c4ccccc46)ccc3nc12,> 93.5 µM (inactive),38 µM (inactive),> 100 µM (inactive),,> 100 µM (inactive),> 90.4 µM (inactive),> 100 µM (inactive),0.166 µM (active),> 100 µM (inactive),> 100 µM (inactive),> 34.5 µM (inactive),> 100 µM (inactive),> 100 µM (inactive),> 100 µM (inactive),54.1 µM (inactive),> 100 µM (inactive),> 100 µM (inactive),69.3 µM (inactive),5.42 µM (inactive)
CCC1(CC)C(=O)N(C(=O)c2ccc(C)cc2)N(C(=O)c2ccc(C)cc2)C1=O,65.6 µM (inactive),35.4 µM (inactive),59.6 µM (inactive),40 µM (inactive),52 µM (inactive),48.6 µM (inactive),> 75 µM (inactive),20 µM (inactive),36.1 µM (inactive),73.1 µM (inactive),> 75 µM (inactive),> 75 µM (inactive),> 75 µM (inactive),,> 75 µM (inactive),> 75 µM (inactive),> 75 µM (inactive),35 µM (inactive),16.8 µM (inactive)
NC(Cc1cc(I)c(Oc2ccc(O)c(I)c2)c(I)c1)C(=O)O (configuration not stated) [RATHYRONINE],> 100 µM (inactive),29.9 µM (inactive),> 100 µM (inactive),,> 100 µM (inactive),> 100 µM (inactive),> 100 µM (inactive),,81.7 µM (inactive),42 µM (inactive),29.3 µM (inactive),> 100 µM (inactive),> 100 µM (inactive),35.7 µM (inactive),37.6 µM (inactive),61.1 µM (inactive),> 100 µM (inactive),43.4 µM (inactive),36.1 µM (inactive)
